Experimental data from US11046945B2, “Labeled glutaminase proteins, isolated glutaminase protein mutants, methods of use, and kit” (CORNELL UNIVERSITY, priority 2013, dated 2021).

Molecular target: T1, GAC (Mus musculus, UniProt D3Z7P3)
T1 construct: plasmid (residues 72-603 for GAC, 72-674 for KGA); His-tag with thrombin cleavage site (N, cleaved yes); made in house; host or cells: pET23a vector
T1 sequence (D3Z7P3 72-603 isoform D3Z7P3-2): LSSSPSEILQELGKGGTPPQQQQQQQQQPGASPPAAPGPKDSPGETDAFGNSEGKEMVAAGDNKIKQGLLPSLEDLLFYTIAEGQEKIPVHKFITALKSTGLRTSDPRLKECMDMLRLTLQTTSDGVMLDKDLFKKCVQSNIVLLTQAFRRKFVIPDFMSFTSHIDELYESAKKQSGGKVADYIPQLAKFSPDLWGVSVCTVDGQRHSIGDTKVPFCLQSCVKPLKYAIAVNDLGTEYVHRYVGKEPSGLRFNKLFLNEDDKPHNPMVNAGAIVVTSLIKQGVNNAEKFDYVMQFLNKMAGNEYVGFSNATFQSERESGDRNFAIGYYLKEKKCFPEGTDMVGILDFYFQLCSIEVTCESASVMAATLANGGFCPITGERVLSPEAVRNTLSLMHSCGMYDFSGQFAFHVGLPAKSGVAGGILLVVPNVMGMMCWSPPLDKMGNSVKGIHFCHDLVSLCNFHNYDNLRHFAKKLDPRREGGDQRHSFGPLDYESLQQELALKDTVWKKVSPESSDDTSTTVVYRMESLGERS
Test: Real-time glutaminase activity assay coupled to GDH (NADH fluorescence)
Assay type: biochemical
Conditions: for inhibition of GAC activity: 10 nM 488-GAC or unlabeled WT-GAC, 20 mM glutamine, 50 mM phosphate
Protocol: [formula] where F is the normalized fluorescence at given drug concentration (i.e., F/F0), and Fsat is the normalized fluorescence at saturating concentrations of drug, as shown in FIG. 7A. Real-time activity assays were prepared in 1 mL samples, where 10 units of glutamate dehydrogenase (Sigma) and 2 mM NAD^+ (Sigma) was prepared in 50 mM Tris-Acetate pH=8.5, 0.1 mM EDTA and equilibrated at 20° C. 10 nM WT GAC was added and allowed to equilibrate 2 minutes before beginning to monitor fluorescence of 488-GAC (490 nm excitation, 520 nm emission) and NADH fluorescence (340 nm excitation, 490 nm emission). Appropriate dilutions of 968 or BPTES prepared in DMSO were injected after 30 seconds and allowed to equilibrate for 2 minutes before 180 μL of a solution of 333 mM K2HPO4, 133 mM glutamine, 50 mM Tris-Acetate pH 8.5, 0.1 mM EDTA was added to initiate GAC activation. The activity of GAC was indirectly measured by the NADH produced by the added glutamate dehydrogenase, which converts the product of glutaminase activity, glutamate, to α-ketoglutarate and ammonia through reducing NAD^+ to NADH. Because solutions containing glutamine undergo non-enzymatic degradation to glutamate, samples were further analyzed by subtracting the evolved NADH produced by glutaminase in the presence of 968, BPTES, or the equivalent volume of DMSO as a control, by the evolved NADH produced in the absence of glutaminase under identical experimental conditions. Evolved NADH was quantified using a standard curve of freshly prepared NADH (Sigma) in 50 mM Tris-Acetate pH=8.5, 0.1 mM EDTA.
Procedures for the described real-time binding and inhibition assays were adapted for 96-well microtiter format with minor alterations. Briefly, 2 μL of inhibitor or DMSO was distributed across the 96-well plate followed by addition of 200 μL 10 nM 488-GAC, unlabeled WT-GAC, or no added GAC as a negative control in 50 mM Tris-Acetate pH 8.5, 0.1 mM EDTA and immediate monitoring of 488 fluorescence (490 nm/520 nm excitation/emission, 5 nm/20 nm excitation/emission slits). […]

SMILES	inhibition of GAC activity	inhibition of GAC activity at 5 nM versus 50 nM GAC (GAC decreased from 50 nM to 5 nM, 968 pre-incubated)
O=C(Cc1ccccc1)Nc1nnc(CCSCCc2nnc(NC(=O)Cc3ccccc3)s2)s1 [BPTES]	potent inhibition	–
CN(C)c1ccc(C2Nc3ccc4ccccc4c3C3=C2C(=O)CC(C)(C)C3)cc1Br (stereo not drawn) [compound 968]	dose-dependent inhibition	higher efficacy and potency
